Values of other authors, collected in patent US20260053767A1, “Hepatoprotective Compositions And Methods” (Jemyll, Ltd., priority 2022, published 2026).

Conditions: reported: adipose tissue inflammation, insulin resistance, non-alcoholic fatty liver disease; cited from earlier work

For `CCCCCCCCCCCC(=O)O` [lauric acid], the “effects on the liver and other tissues” value is listed as “significant adverse effects on the liver and other tissues”.
